Changes are numbered by the printed parent chain.
What was measured:
Test in all cases: spectrophotometric GST assay at […] nm, nonlinear least-squares fit
Assay type in all cases: biochemical
[1] = target: T1, bmGSTu2 (Bombyx mori, UniProt A9XI30, N68A); settings: read-out: N68A; 5 mM GSH; value (SD), n = 3
T1 construct: full length, 233 residues, 26,667 Da calculated; cDNA from fat body; pET-22b (EcoRI/XhoI, reverse primer without stop codon), E. coli Rosetta (DE3) pLysS
T1 sequence (A9XI30 1-233 N68A): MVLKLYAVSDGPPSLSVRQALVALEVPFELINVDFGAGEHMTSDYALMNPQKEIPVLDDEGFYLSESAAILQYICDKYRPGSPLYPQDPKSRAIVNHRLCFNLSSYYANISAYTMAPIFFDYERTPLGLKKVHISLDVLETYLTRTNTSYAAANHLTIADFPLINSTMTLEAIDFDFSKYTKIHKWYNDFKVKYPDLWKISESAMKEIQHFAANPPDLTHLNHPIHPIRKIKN

[2] = target: T2, bmGSTu2 (Bombyx mori, UniProt A9XI30, I54A); settings: read-out: I54A; 5 mM GSH; value (SD), n = 3
T2 construct: full length, 233 residues, 26,667 Da calculated; cDNA from fat body; pET-22b (EcoRI/XhoI, reverse primer without stop codon), E. coli Rosetta (DE3) pLysS
T2 sequence (A9XI30 1-233 I54A): T1 sequence (A9XI30 1-233 N68A) with I54A, A68N

[3] = target: T3, bmGSTu2 (Bombyx mori, UniProt A9XI30, S67A); settings: read-out: S67A; 5 mM GSH; value (SD), n = 3
T3 construct: full length, 233 residues, 26,667 Da calculated; cDNA from fat body; pET-22b (EcoRI/XhoI, reverse primer without stop codon), E. coli Rosetta (DE3) pLysS
T3 sequence (A9XI30 1-233 S67A): T1 sequence (A9XI30 1-233 N68A) with S67A, A68N

[4] = target: T4, bmGSTu2 (Bombyx mori, UniProt A9XI30); settings: read-out: Wild-type; 5 mM GSH; value (SD), n = 3
T4 construct: full length, 233 residues, 26,667 Da calculated; cDNA from fat body; pET-22b (EcoRI/XhoI, reverse primer without stop codon), E. coli Rosetta (DE3) pLysS
T4 sequence (A9XI30 1-233): T1 sequence (A9XI30 1-233 N68A) with A68N

[5] = target: T5, bmGSTu2 (Bombyx mori, UniProt A9XI30, E66A); settings: read-out: E66A; 5 mM GSH; value (SD), n = 3
T5 construct: full length, 233 residues, 26,667 Da calculated; cDNA from fat body; pET-22b (EcoRI/XhoI, reverse primer without stop codon), E. coli Rosetta (DE3) pLysS
T5 sequence (A9XI30 1-233 E66A): T1 sequence (A9XI30 1-233 N68A) with E66A, A68N

SMILES: O=[N+]([O-])c1ccc(Cl)c([N+](=O)[O-])c1 [CDNB]
- Km [1]: 530 µM
- Km [2]: 2500 µM
- Km [3]: 1600 µM
- Km [4]: 270 µM
- Km [5]: 910 µM

Source: article PMC4954967, “Identification of a diazinon-metabolizing glutathione S-transferase in the silkworm, Bombyx mori” (Scientific Reports, 2016)
